From paper PMC6877086, “Novel charged sodium and calcium channel inhibitor active against neurogenic inflammation” (eLife, 2019)
Structures can show the parent of a compound that is named as a salt. Blank lines part the entries; values can stand above or below the molecule they belong to.

What was measured:
Type in all cases: cell-based
Nav1.7 [1] = biological target: T1, Nav1.7 (Homo sapiens, UniProt Q15858); test: whole-cell patch clamp, external application; KI estimated from shift in channel availability
T1 construct: gene SCN9A; human Nav1.7 stably expressed in HEK cell line
T1 sequence (Q15858 whole entry): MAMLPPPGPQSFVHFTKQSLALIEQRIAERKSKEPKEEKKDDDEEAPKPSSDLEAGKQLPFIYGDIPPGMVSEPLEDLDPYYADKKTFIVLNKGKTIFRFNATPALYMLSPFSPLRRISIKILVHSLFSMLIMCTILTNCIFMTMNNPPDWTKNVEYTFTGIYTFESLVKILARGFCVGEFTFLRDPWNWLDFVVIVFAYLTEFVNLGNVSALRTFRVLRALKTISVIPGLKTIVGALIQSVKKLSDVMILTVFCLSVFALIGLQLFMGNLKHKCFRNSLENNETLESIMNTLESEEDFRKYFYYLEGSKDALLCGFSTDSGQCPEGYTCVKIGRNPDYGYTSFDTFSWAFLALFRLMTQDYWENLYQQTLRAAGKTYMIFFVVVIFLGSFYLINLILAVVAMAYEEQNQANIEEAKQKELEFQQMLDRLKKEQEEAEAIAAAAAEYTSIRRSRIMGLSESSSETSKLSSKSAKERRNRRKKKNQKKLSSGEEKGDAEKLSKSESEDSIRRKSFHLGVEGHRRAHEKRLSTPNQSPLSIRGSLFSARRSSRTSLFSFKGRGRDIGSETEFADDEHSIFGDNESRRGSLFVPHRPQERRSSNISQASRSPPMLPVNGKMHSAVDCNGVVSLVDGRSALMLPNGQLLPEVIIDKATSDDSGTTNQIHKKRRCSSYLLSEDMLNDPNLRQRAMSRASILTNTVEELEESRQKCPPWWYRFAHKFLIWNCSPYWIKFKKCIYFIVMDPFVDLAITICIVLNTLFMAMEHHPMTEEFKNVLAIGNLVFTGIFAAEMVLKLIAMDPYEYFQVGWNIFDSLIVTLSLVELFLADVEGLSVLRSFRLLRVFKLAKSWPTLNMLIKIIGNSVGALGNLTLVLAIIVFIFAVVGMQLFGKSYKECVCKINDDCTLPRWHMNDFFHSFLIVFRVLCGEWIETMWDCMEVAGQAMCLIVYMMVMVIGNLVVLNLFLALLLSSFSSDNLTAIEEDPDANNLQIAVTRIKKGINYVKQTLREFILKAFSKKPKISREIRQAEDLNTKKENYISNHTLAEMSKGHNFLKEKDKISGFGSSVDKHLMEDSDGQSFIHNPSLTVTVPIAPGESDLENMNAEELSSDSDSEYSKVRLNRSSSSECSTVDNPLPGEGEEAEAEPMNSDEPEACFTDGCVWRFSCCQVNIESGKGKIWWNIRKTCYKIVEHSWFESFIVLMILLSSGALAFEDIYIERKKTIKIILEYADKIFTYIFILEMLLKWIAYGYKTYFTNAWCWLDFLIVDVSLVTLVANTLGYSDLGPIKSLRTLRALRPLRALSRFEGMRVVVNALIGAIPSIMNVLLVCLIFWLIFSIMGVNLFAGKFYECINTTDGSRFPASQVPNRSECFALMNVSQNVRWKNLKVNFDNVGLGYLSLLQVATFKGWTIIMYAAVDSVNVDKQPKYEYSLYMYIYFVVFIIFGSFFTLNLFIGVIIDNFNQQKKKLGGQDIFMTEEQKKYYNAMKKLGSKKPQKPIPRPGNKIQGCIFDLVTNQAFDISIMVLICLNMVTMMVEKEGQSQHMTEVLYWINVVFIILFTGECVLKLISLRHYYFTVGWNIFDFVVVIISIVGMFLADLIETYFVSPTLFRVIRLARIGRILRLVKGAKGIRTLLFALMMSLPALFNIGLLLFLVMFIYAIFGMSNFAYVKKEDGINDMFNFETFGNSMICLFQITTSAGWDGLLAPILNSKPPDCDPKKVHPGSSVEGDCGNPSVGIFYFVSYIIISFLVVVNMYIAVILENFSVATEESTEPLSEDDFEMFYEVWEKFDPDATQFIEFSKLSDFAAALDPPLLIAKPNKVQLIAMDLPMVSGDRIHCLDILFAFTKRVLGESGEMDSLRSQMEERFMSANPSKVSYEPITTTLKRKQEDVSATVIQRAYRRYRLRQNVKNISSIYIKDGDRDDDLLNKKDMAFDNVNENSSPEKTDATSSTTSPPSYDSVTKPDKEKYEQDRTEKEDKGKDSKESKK

Cav2.2 [2] = biological target: T2, Cav2.2 (Rattus norvegicus, UniProt Q02294); test: whole-cell patch clamp, Ba2+ current, external and internal application
T2 construct: gene Cacna1b; rat Cav2.2 stably expressed with β3 and α2δ−1 subunits in tsA201 cell line; with β3 subunit and α2δ−1 subunit

Cav2.2 [3] = biological target: T2, Cav2.2; test: whole-cell patch clamp, Ba2+ current
Nav1.7 [4] = biological target: T1, Nav1.7; test: whole-cell patch clamp, use-dependent inhibition at […] Hz

Kd (Nav1.7 [1]): 710 nM
Compound: COc1ccc(CNC(=O)C(CSCC2CCCC2)[N+](C)(C)CCC(C)(C)C)cc1 (centres unmarked) [CNCB-2, [2-Cyclopentylmethylsulfanyl-1-(4-methoxy-benzylcarbamoyl)-ethyl]−(3,3-dimethyl-butyl)-dimethyl-ammonium, chloride salt]
whole-cell patch clamp, Ba2+ current, external and internal application (Cav2.2 [2]): current reduced to 5 ± 2% of control by 100

inhibition at 10 µM (Cav2.2 [3]): ~60%
Compound: COc1ccc(CNC(=O)C(CSCC2CCCC2)NCCC(C)(C)C)cc1 (centres unmarked) [NNCB-2, 3-Cyclopentylmethylsulfanyl-2-(3,3-dimethyl-butylamino)-N-(4-methoxy-benzyl)-propionamide]

Compound: CCCCN1CCCCC1C(=O)Nc1c(C)cccc1C (centres unmarked) [bupivacaine]
whole-cell patch clamp, use-dependent inhibition at 10 Hz (Nav1.7 [4]): current reduced to 22 ± 4% (no drug 77 ± 3%) by 10

Compound: CCN(CC)CC(=O)Nc1c(C)cccc1C [lidocaine]
whole-cell patch clamp, use-dependent inhibition at 10 Hz (Nav1.7 [4]): current reduced to 57 ± 7% of control (no drug 77 ± 3%) by 30
